In US10807994B2, “Heterocyclic compounds and uses thereof” (NUVATION BIO INC., priority 2017, dated 2020):

Assays:
NCI-H460 cells = assay: Cell proliferation assay (Cell Titer-Glo), NCI-H460 cells; format: cell-based; settings: Homo sapiens, typically 72 hrs post-treatment
Description: (§1) The effects of test compounds were studied in five cell lines with various histotypes. The cancer cells (Table 4) were harvested during the logarithmic growth period and counted. Adjust cell concentrations to the appropriated number with respective medium, and add 90 μL cell suspensions to 96-well plates. After cells were seeded, the plates were shaken gently to distribute cells evenly and incubated at 37° C., 5% CO2 on day 1.
(§2) Cells were treated with test compounds at 9 concentrations within a desired concentration range (e.g. 1.5 nM-10 μM) on day 2 by series diluting the test compound stock solution (10 mM in DMSO) with culture medium. Cell viability was assessed by Cell Titer-Glo® as recommended by Promega (Cat. No.: G7572, Promega) typically 72 hrs post-treatment.
(§3) Cell viability data were plotted using GraphPad Prism (version 5, GraphPad Software, Inc., San Diego, Calif.). In addition, a nonlinear regression model with a sigmoidal dose response and variable slope within GraphPad Prism was used to calculate the IC50 value of individual test compounds.

A427 cells [1] = assay: Cell proliferation assay (Cell Titer-Glo), A427 cells; format: cell-based; settings: Homo sapiens, A-427, typically 72 hrs post-treatment
Description: as §1, §2, §3

A427 cells [2] = assay: Cytotoxicity assay (resazurin), A427 cells, 72 hr; format: cell-based; settings: Homo sapiens, A-427, read-out: Cell Viability A427 IC50
Procedure, shortened: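 Cells seeded at 1500 per well, grown 24 hr at 37° C, 5% CO2, then exposed to serially diluted compounds for 72–96 hr before 4–6 hr with 1 mM resazurin (Ex 535/Em 590 nm). Blank-subtracted signal normalised to DMSO control; percent inhibition used for IC50.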

LoVo cells = assay: Cell proliferation assay (Cell Titer-Glo), LoVo cells; format: cell-based; settings: Homo sapiens, typically 72 hrs post-treatment
Description: as §1, §2, §3

A549 cells = assay: Cytotoxicity assay (resazurin), A549 cells, 96 hr; format: cell-based; settings: Homo sapiens, read-out: Cell Viability A549 IC50
Description: A549 (CCL-185; ATCC) and A427 (HTB-53; ATCC), both lung epithelial cell lines were seeded in their respective medium (DMEM/MEM, 10569044/41090101; Gibco) at a cell count of 1500 cells per 100 μL per well in a 96 well edge plate (167425; ThermoFisher). Cells were allowed to grow at 37° C. for 24 hr in 5% CO2 environment (culture conditions) in a Nuaire incubator (humidified). Serially diluted test compounds (100 μL) within the desired testing concentration ranges were added to the culture plate were further incubated in culture conditions for 72 hr and 96 hr for A427 and A549 respectively. The experiment was terminated at the designated incubation time by replacing the medium with 100 μL of 1 mM of resazurin (R7017; Sigma) prepared in respective culture medium, and the plates were further incubated in culture conditions for 4-6 hr. Fluorescence was recorded using a multimodal plate reader (Biotek Synergy Neo) at an excitation wavelength of 535 nm and emission wavelength of 590 nm to obtain relative fluorescence units. Data analysis was done by subtracting the background fluorescence (only medium blank) value from each reading and then normalizing with the vehicle control (DMSO treated cells) to obtain percent survival/proliferation. Percent survival was then subtracted by 100 to get the percent inhibition of proliferation which was used to calculate IC50 values. Potency of compounds in other cell lines (As-Pc-1, Panc-10.05, MDAMB231, A172) was determined in an analogous manner.

HCT-116 cells = assay: Cell proliferation assay (Cell Titer-Glo), HCT-116 cells; format: cell-based; settings: Homo sapiens, typically 72 hrs post-treatment, read-out: IC50 HCT116
Description: as §1, §2, §3

WEE1 kinase enzyme = WEE1 kinase enzyme (Homo sapiens (Human), UniProt P30291); assay: WEE1 IC50 determination, LanthaScreen Terbium labeled TR-FRET kinase assay; format: biochemical; settings: WEE1 enzyme 1 nM
Chain of WEE1 kinase enzyme (P30291 whole entry): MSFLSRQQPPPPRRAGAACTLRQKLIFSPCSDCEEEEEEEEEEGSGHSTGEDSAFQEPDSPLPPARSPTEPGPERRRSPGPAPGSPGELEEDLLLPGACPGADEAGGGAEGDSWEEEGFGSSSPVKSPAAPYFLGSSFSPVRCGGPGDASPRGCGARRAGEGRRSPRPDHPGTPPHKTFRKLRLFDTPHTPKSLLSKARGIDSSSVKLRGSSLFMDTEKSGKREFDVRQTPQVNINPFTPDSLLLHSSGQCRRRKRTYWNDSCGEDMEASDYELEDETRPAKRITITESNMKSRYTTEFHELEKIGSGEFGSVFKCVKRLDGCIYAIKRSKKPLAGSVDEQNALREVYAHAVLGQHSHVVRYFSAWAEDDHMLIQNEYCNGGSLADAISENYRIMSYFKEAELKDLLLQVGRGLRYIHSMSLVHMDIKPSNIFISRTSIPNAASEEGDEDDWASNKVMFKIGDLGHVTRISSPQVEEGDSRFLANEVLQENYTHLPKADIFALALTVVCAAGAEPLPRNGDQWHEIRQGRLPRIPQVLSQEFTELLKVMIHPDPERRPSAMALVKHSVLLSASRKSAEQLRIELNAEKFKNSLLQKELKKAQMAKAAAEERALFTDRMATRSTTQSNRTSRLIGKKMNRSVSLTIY
Procedure, shortened: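 Human WEE1 (1 nM) was preincubated 10 min with 3-fold diluted compounds, then ATP ([…]) and fluorescent PolyGT substrate (200 nM) were added for 1 h at room temperature in the dark. Terbium antibody/EDTA stop, TR-FRET read (ex 340, em 495/520 nm); IC50 from four-parameter logistic fit of percent inhibition.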

A427 cells [3] = assay: Cell viability in combination with cisplatin in A427 cells (resazurin); format: cell-based; settings: Homo sapiens, A-427, 24 hr 2.5 μM cisplatin
Description: The activity of test compounds in combination with cisplatin in A427 cells was determined. Cells were seeded in a 96 well plate at 2000 cells/well. The next day, cells were treated with 2.5 μM cisplatin or vehicle (1×PBS) and incubated in culture conditions (37° C., 5% CO2) for 24 hr. Following the incubation, culture medium was replaced with medium containing test compound and cisplatin/vehicle, and cells were further incubated in culture conditions for another 72 hr. By this procedure, cisplatin was either continued or discontinued after an initial 24-hr incubation. Addition of test compound was in concentrations needed to obtain an 8-point dose response curve, with concentrations prepared by 3-fold dilution. The assay was terminated upon addition of resazurin, incubation for 4 hr in culture conditions and measurement of fluorescence at excitation and emission wavelengths of 535 and 590 nm, respectively.

A2780 cells = assay: Cell proliferation assay (Cell Titer-Glo), A2780 cells; format: cell-based; settings: Homo sapiens, typically 72 hrs post-treatment
Description: as §1, §2, §3

CDC2 at Tyr15 residue = settings: in combination with gemcitabine, carboplatin, or cisplatin; cited from earlier work

CC1(C)CN(C(=O)CO)Cc2cc(Nc3ncc4c(n3)OCN(c3c(Cl)cccc3Cl)C4=O)ccc21 [Example 1.3]
IC50 (NCI-H460 cells): > 10000 nM | IC50 (A427 cells [1]): 5980 nM | IC50 (A427 cells [2]): 4520 nM | IC50 (LoVo cells): 8260 nM | IC50 (A549 cells): 2990 nM | IC50 (HCT-116 cells): 8120 nM | IC50 (WEE1 kinase enzyme): 40 nM

CC1(C)CNCc2cc(Nc3ncc4c(n3)OCN(c3c(Cl)cccc3Cl)C4=O)ccc21 [Example 1.10]
IC50 (A427 cells [1]): 1660 nM | IC50 (A427 cells [3]; then compound + cisplatin 72 hr, read-out: Cell viability IC50 in A427 cells with 2.5 μM cisplatin: 24 hr cisplatin then compound + cisplatin): < 14 nM | IC50 (A427 cells [3]; then compound alone 72 hr, read-out: Cell viability IC50 in A427 cells with 2.5 μM cisplatin: 24 hr cisplatin then compound): 360 nM | IC50 (A427 cells [2]): 1990 nM | IC50 (A549 cells): 2600 nM | IC50 (WEE1 kinase enzyme): 11 nM | IC50 (A2780 cells): 3850 nM

C=CCn1c(=O)c2cnc(Nc3ccc(N4CCN(C)CC4)cc3)nc2n1-c1cccc(C(C)(C)O)n1 [MK-1775, 1,2-allyl-1-(6-(2-hydroxypropan-2-yl)pyridin-2-yl)-6-((4-(4methylpiperazin-1-yl)phenyl)amino)-1H-pyrazolo[3,4-d]pyrimidin-3 (2H)-one]
Phosphorylation of CDC2 at Tyr15 (CDC2 at Tyr15 residue): abolished the phosphorylation of CDC2 at Tyr15 residue
